Like-named read-outs stand apart in the source and are kept apart here.
Assays:
[1] = test system: Ad2 variant pre-mRNAs spliced in HeLa S3 nuclear extracts; experiment: In vitro splicing assay (IVS), RT-qPCR of spliced product; type: biochemical; settings: geometric mean
Outline: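 Ad2 variant pre-mRNA (2 ng) with FTZΔi control RNA in HeLa S3 nuclear extract (8 μg) was pre-incubated with compound or DMSO for 15 min at 30 °C. Splicing ran 90 min at 30 °C after adding 0.5 mM ATP, creatine phosphate and MgCl2. Spliced product was quantified by TaqMan RT-qPCR, normalized to DMSO, and curve-fitted.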

SF3b complexes = target: T1, SF3b complexes (Homo sapiens, UniProt O75533+Q7RTV0); experiment: Scintillation proximity assay (SPA) with [3H]-labelled pladienolide probe; type: binding; settings: SF3B1 (WT); geometric mean; read-out: SPA-ATS GMean IC50 (nM) SF3B1 (WT)
T1 construct: endogenous in cells; host or cells: Nuclear extracts; A HeLa S3 extract preparation is described for the in vitro splicing assay
Outline: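 SF3b complexes captured from nuclear extracts on anti-SF3B1 antibody SPA beads; test compounds pre-incubated 30 min before 2.5 nM [3H]-pladienolide probe added, then 30 min incubation. Bound probe read by scintillation; values from non-linear regression of concentration–response curves.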

[2] = test system: NCI-H1568 cells (high MCL1); experiment: Cell proliferation and viability, CellTiter-Glo, 72 hours; type: cell-based; settings: for GI50: geometric mean; for CTGlo-ATS Mean MinResponse % 72 h NCIH1568.1: −100% cidal, 0% static, 100% maximal growth
Outline: (§1)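 Cells grown in RPMI-1640 with 10% FBS (Panc 05.04 with added insulin, 15% FBS total) were exposed to an 11-point half-log dilution, typically 10 μM–100 pM, at 0.1% DMSO for 72 h at 37 °C. ATP content was read by CellTiter-Glo luminescence. Percent inhibition was set against a time-zero plate and DMSO vehicle wells, on a −100% (cidal) to 100% (uninhibited growth) scale.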

[3] = test system: Panc 05.04 cells (SF3b K700E mutant); experiment: as above; type: cell-based; settings: for CTGlo-ATS Mean MinResponse % 72 h PANC0504.1: −100% cidal, 0% static, 100% maximal growth; for GI50: geometric mean
Outline: as §1

[4] = Ad2.1 pre-mRNA substrate, read-out: qPCR-IVS-ATS GMean IC50 (nM) Ad2.1
[5] = Ad2.2 pre-mRNA substrate, read-out: qPCR-IVS-ATS GMean IC50 (nM) Ad2.2
[6] = NCI-H1568, read-out: CTGlo-ATS GMean GI50 (nM) 72 h NCIH1568.1, NCIH1568.1 cells, 72 h
[7] = Panc 05.04, read-out: CTGlo-ATS GMean GI50 (nM) 72 h PANC0504.1, PANC0504.1 cells, 72 h
[8] = NCI-H1568, 72 h, read-out: CTGlo-ATS GMean GI50 (nM) 72 h NCIH1568.1, NCIH1568.1 cells, 72 h
[9] = Panc 05.04, 72 h, read-out: CTGlo-ATS GMean GI50 (nM) 72 h PANC0504.1, PANC0504.1 cells, 72 h

| Structure (SMILES) | IC50 [1, 4] [nM] | IC50 [1, 5] [nM] | IC50 (SF3b complexes) [nM] | GI50 [2, 6] [nM] | CTGlo-ATS Mean MinResponse % 72 h NCIH1568.1 ([2]; NCIH1568.1 cells, 72 h) [%] | CTGlo-ATS Mean MinResponse % 72 h PANC0504.1 ([3]; PANC0504.1 cells, 72 h) [%] | GI50 [3, 7] [nM] | GI50 [2, 8] [nM] | GI50 [3, 9] [nM] |
| --- | --- | --- | --- | --- | --- | --- | --- | --- | --- |
| C/C(=C\c1cc(C)cc2[nH]ncc12)[C@H]1OC(=O)C[C@H](O)CC[C@H](C)[C@@H](OC(=O)N2CCN(C)CC2)/C=C/[C@@H]1C [Compound 96] | > 25000 | 108 | 2.4 | 305 | −29.687 | −14.554 | 168 |  |  |
| C/C(=C\c1cccc2c1c(C)nn2C)[C@H]1OC(=O)C[C@H](O)CC[C@H](C)[C@@H](OC(=O)N2CCN(C)CC2)/C=C/[C@@H]1C [Compound 97] | > 25000 | 2890 | 240 | 4370 | 11.801 | 46.987 | 9140 |  |  |
| C/C(=C\c1cc(F)cc(N2CCOCC2)c1)[C@H]1OC(=O)C[C@H](O)CC[C@H](C)[C@@H](OC(=O)N(C)C2CN3CCC2CC3)/C=C/[C@@H]1C (some centres unmarked) [Compound 98] | 159 | 35.9 | 3.45 |  | −75.954 | −87.759 |  | 11.5 | 10.3 |
| C/C(=C\c1cc(F)c2cn(CC3CC3)nc2c1)[C@H]1OC(=O)C[C@H](O)CC[C@H](C)[C@@H](OC(=O)N2CCN(C)CC2)/C=C/[C@@H]1C [Compound 99] | > 25000 | 156 | 4.14 | 93.2 | −73.818 | −69.788 | 78 |  |  |
| C/C(=C\c1cc(F)c2cnn(C)c2c1)[C@H]1OC(=O)C[C@H](O)CC[C@H](C)[C@@H](OC(=O)N2CCN(C)CC2)/C=C/[C@@H]1C [Compound 101] | 1810 | 4.13 | 1.1 |  | −64.073 | −94.474 |  | 7.68 | 9.78 |
| C/C(=C\c1cnn(Cc2ccncc2)c1)[C@H]1OC(=O)C[C@H](O)CC[C@H](C)[C@@H](OC(=O)N2CCN(C)CC2)/C=C/[C@@H]1C [Compound 102] | > 25000 | 507 | 29.8 | 4900 | 31.099 | 24.371 | 3020 |  |  |
| C/C(=C\c1cnn(C)c1)[C@H]1OC(=O)C[C@H](O)CC[C@H](C)[C@@H](OC(=O)N2CCN(C)CC2)/C=C/[C@@H]1C [Compound 103] | > 25000 | 4260 | 258 |  | 78.168 | 80.958 |  | > 10000 | > 10000 |
| C/C(=C\c1cc(F)cc(N2CCN(CCO)C(=O)C2)c1)[C@H]1OC(=O)C[C@H](O)CC[C@H](C)[C@@H](OC(=O)N2CCN(C)CC2)/C=C/[C@@H]1C [Compound 104] | 31.9 | 13.9 | 2.1 | 5.1 | −69.040 | −86.795 | 4.58 |  |  |
| C/C(=C\c1cnn(C2CCN(C)CC2)c1)[C@H]1OC(=O)C[C@H](O)CC[C@H](C)[C@@H](OC(=O)N2CCN(C)CC2)/C=C/[C@@H]1C [Compound 106] | 21300 | 556 | 146 | 9020 | 49.516 | 25.144 | 1950 |  |  |
| C/C(=C\c1cc(F)cc(N2CCN(CC(F)(F)F)CC2)c1)[C@H]1OC(=O)C[C@H](O)CC[C@H](C)[C@@H](OC(=O)N2CCN(C)CC2)/C=C/[C@@H]1C [Compound 107] | 190 | 25.4 | 8.76 | 7.27 | −87.564 | −83.679 | 8.46 |  |  |
| COCC(=O)N1CCN(c2cc(F)cc(/C=C(\C)[C@H]3OC(=O)C[C@H](O)CC[C@H](C)[C@@H](OC(=O)N4CCN(C)CC4)/C=C/[C@@H]3C)c2)CC1 [Compound 108] | 16.8 | 14.3 | 2.03 | 2.47 | −79.118 | −82.618 | 3.31 |  |  |
| C/C(=C\c1cc(F)cc(N2CCN(C(=O)C3CC3)CC2)c1)[C@H]1OC(=O)C[C@H](O)CC[C@H](C)[C@@H](OC(=O)N2CCN(C)CC2)/C=C/[C@@H]1C [Compound 109] | 26.5 | 14 | 2.85 | 2 | −84.780 | −84.673 | 3.55 |  |  |
| COc1ccc(S(=O)(=O)N2CCN(c3cc(F)cc(/C=C(\C)[C@H]4OC(=O)C[C@H](O)CC[C@H](C)[C@@H](OC(=O)N5CCN(C)CC5)/C=C/[C@@H]4C)c3)CC2)cc1 [Compound 110] | 142 | 63.2 | 42.1 | 40.9 | −93.755 | −74.667 | 41.8 |  |  |
| C/C(=C\c1cc(F)cc(N2CCN(C(=O)C3CCCCC3)CC2)c1)[C@H]1OC(=O)C[C@H](O)CC[C@H](C)[C@@H](OC(=O)N2CCN(C)CC2)/C=C/[C@@H]1C [Compound 114] | 103 | 39.1 | 18.2 |  | −87.102 | −82.856 |  | 9.35 | 12.3 |
| C/C(=C\c1cc(F)cc(N2CCN(S(=O)(=O)c3ccc4ccn(C)c4c3)CC2)c1)[C@H]1OC(=O)C[C@H](O)CC[C@H](C)[C@@H](OC(=O)N2CCN(C)CC2)/C=C/[C@@H]1C [Compound 115] | 335 | 233 | 144 | 88.9 | −93.625 | −97.417 | 85.2 |  |  |
| C/C(=C\c1cc(F)c2cnn(C3CCOCC3)c2c1)[C@H]1OC(=O)C[C@H](O)CC[C@H](C)[C@@H](OC(=O)N2CCN(C)CC2)/C=C/[C@@H]1C [Compound 116] | 25 | 19.2 | 4.45 | 1.55 | −90.483 | −76.511 | 2.2 |  |  |
| C/C(=C\c1cc(F)c2cn(C3CCOCC3)nc2c1)[C@H]1OC(=O)C[C@H](O)CC[C@H](C)[C@@H](OC(=O)N2CCN(C)CC2)/C=C/[C@@H]1C [Compound 117] | > 25000 | 69.6 | 9.76 | 79.8 | −55.709 | −95.049 | 50.2 |  |  |
| C/C(=C\c1cc(F)cc(N2CCN(C(=O)C3CCOCC3)CC2)c1)[C@H]1OC(=O)C[C@H](O)CC[C@H](C)[C@@H](OC(=O)N2CCN(C)CC2)/C=C/[C@@H]1C [Compound 118] | 22 | 19.9 | 3.76 |  | −82.113 | −79.169 |  | 3 | 4.55 |
| C/C(=C\c1cc(F)cc(N2CCN(C(=O)CN3CCOCC3)CC2)c1)[C@H]1OC(=O)C[C@H](O)CC[C@H](C)[C@@H](OC(=O)N2CCN(C)CC2)/C=C/[C@@H]1C [Compound 119] | 31 | 21.7 | 11.7 | 8.84 | −81.451 | −75.344 | 8.43 |  |  |
| C/C(=C\c1cc(F)cc(N2CCN(C(=O)c3cn(C)cn3)CC2)c1)[C@H]1OC(=O)C[C@H](O)CC[C@H](C)[C@@H](OC(=O)N2CCN(C)CC2)/C=C/[C@@H]1C [Compound 120] | 25.3 | 26.5 | 3.97 |  | −75.164 | −78.098 |  | 11.2 | 9.42 |

Reference: US11679107B2 (Eisai R&D Management Co., Ltd., priority 2018, dated 2023)
